Results on 3 molecules are retold here after patent US12624354B2, “Methods and compositions for prime editing nucleotide sequences” (The Broad Institute, Inc., priority 2019, dated 2026).

Experiment [1] concerns 5′-Cy5-labeled dsDNA substrates. The experiment can be described thus: In vitro TPRT (prime editing) primer extension assay, denaturing urea PAGE. In kind it is biochemical. As to conditions: non-nicked substrate, standard gRNA (gRNA_0, lane 3).
Procedure: All reactions are with M-MLV RT.
Then, the fluorescently labeled DNA substrate was added along with dNTPs and the RT enzyme. After 1 hour of incubation at 37° C., the reaction products were analyzed by denaturing urea-polyacrylamide gel electrophoresis (PAGE).
However, the DNA substrates are not pre-nicked in this set of experiments. […] The reaction products were analyzed by denaturing urea-polyacrylamide gel electrophoresis (PAGE).
Reactions were incubated at 37° C. for 1 hour, then analyzed by denaturing urea PAGE and visualized for Cy5 fluorescence.
Reactions were allowed to proceed at 37° C. for 1 hour prior to separation by denaturing urea PAGE and visualization by Cy5 fluorescence.
Experiment [2] deals with different target sites in various cell lines. The experiment can be described thus: Efficiency of prime editors with truncated RT. Format: cell-based. From the text:
FIG. 75 provides a bar graph comparing the efficiency (i.e., “% of total sequencing reads with the specified edit or indels”) of PE2, PE2-trunc, PE3, and PE3-trunc over different target sites in various cell lines.
See FIG. 75, which provides a bar graph comparing the efficiency (i.e., “% of total sequencing reads with the specified edit or indels”) of PE2, PE2-trunc, PE3, and PE3-trunc over different target sites in various cell lines.

Another experiment has as its system HEK cells. The experiment can be described thus: Npu intein-split prime editors, plasmid transfection, high-throughput sequencing. In kind it is cell-based. The following applies: HEK cells transfected with plasmids. The text has this: This Example is focused on a PE fusion protein comprising the canonical SpCas9 (SEQ ID NO: 18). The split sites for other Cas9 proteins may be the corresponding same site, or may need to be optimized for each different Cas9 protein. In the instant Example, the prime editor was split between residues 1023 and 1024 of SpCas9 (SEQ ID NO: 18). This is referred to as the “1023/1024” split site.
Prime editors (PEs) exceed the AAV packaging capacity.
It was therefore determined whether mutation from the Cas9-native “SEQ” towards the Npu intein “CFN” sequence altered efficiency of prime editing.
Although associated, unspliced editors may be active, perturbations of the sterics of the prime editor resulting from incomplete splicing during initiation steps may affect editing outcomes.

For “Cas9 nickase: Cas9 nickase (SpyCas9 H840A mutant)”, the “cleavage of the DNA strand” value in experiment [1] is given as “efficiently cleaves the DNA strand”.
For “PE2-trunc: Cas9 (H840A) fused to a truncated M-MLV reverse transcriptase with D200N, T306K, W313F, T330P; SEQ ID NO: 765”, in experiment [2], the “efficiency (% of total sequencing reads with the specified edit or indels)” value is “about as efficient as the prime editors comprising the non-truncated RT proteins”.

B1: 1024-CFN: intein-split PE with Cas9 residues at 1024 mutated to the Npu intein CFN sequence (protein)
chain: MKRTADGSEFESPKKKRKVIKIATRKYLGKQNVYDIGVERDHNFALKNGFIASNCFNEIGKATAKYFFYSNIMNFFKTEITLANGEIRKRPLIETNGETGEIVWDKGRDFATVRKVLSMPQVNIVKKTEVQTGGFSKESILPKRNSDKLIARKKDWDPKKYGGFDSPTVAYSVLVVAKVEKGKSKKLKSVKELLGITIMERSSFEKNPIDFLEAKGYKEVKKDLIIKLPKYSLFELENGRKRMLASAGELQKGNELALPSKYVNFLYLASHYEKLKGSPEDNEQKQLFVEQHKHYLDEIIEQISEFSKRVILADANLDKVLSAYNKHRDKPIREQAENIIHLFTLTNLGAPAAFKYFDTTIDRKRYTSTKEVLDATLIHQSITGLYETRIDLSQLGGDSGGSSGGSSGSETPGTSESATPESSGGSSGGSSTLNIEDEYRLHETSKEPDVSLGSTWLSDFPQAWAETGGMGLAVRQAPLIIPLKATSTPVSIKQYPMSQEARLGIKPHIQRLLDQGILVPCQSPWNTPLLPVKKPGTNDYRPVQDLREVNKRVEDIHPTVPNPYNLLSGLPPSHQWYTVLDLKDAFFCLRLHPTSQPLFAFEWRDPEMGISGQLTWTRLPQGFKNSPTLFNEALHRDLADFRIQHPDLILLQYVDDLLLAATSELDCQQGTRALLQTLGNLGYRASAKKAQICQKQVKYLGYLLKEGQRWLTEARKETVMGQPTPKTPRQLREFLGKAGFCRLFIPGFAEMAAPLYPLTKPGTLFNWGPDQQKAYQEIKQALLTAPALGLPDLTKPFELFVDEKQGYAKGVLTQKLGPWRRPVAYLSKKLDPVAAGWPPCLRMVAAIAVLTKDAGKLTMGQPLVILAPHAVEALVKQPPDRWLSNARMTHYQALLLDTDRVQFGPVVALNPATLLPLPEEGLQHNCLDILAEAHGTRPDLTDQPLPDADHTWYTDGSSLLQEGQRKAGAAVTTETEVIWAKALPAGTSAQRAELIALTQALKMAEGKKLNVYTDSRYAFATAHIHGEIYRRRGWLTSEGKEIKNKDEILALLKALFLPKRLSIIHCPGHQKGHSAEARGNRMADQAARKAAITETPDTSTLLIENSSPSGGSKRTADGSEFEPKKKRK
B1: the “prime editing activity compared with full-length PE3” value in the experiment on HEK cells is given as “recapitulates full-length PE3 activity”.
